The values that follow come from patent US20040116397A1, “Agents and methods for the prevention of initial onset of cancers, the treatment of cancers, and the recurrence of existing cancers” (priority 2003, published 2004).

Entries after “also recorded” stand apart in the source; their conditions may differ.

One test deals with endothelial cell. The note with it: background, reference (3); cited from earlier work.
Test [1] has as its system DU145 cells. Nature of the test: Cell growth, CELLTITER96 AQUEOUS ONE tetrazolium assay. The format is cell-based. The procedure: (§1) Referring to FIG. 1, actively growing LNCaP and DU145 cells were plated in 96-well plates at a density of 10^5 cells per well. After 24 hours in a 37° C. incubator with 5% CO2, the cells were treated with the indicated concentration of 2-ME. Control cells received only the vehicle (DMSO). Cell growth was monitored every 24 hours using the […]96 AQUEOUS ONE solution assay containing a tetrazolium compound (Promega Corporation, Madison, Wis.).
(§2) The assay is based on the principle that actively growing cells generate reducing equivalents such as NADH that is necessary for the cells to reduce the tetrazolium compound to formazan product that is detected by measuring the absorbance at […]. Increase in absorbance indicates cell viability.
(§3) The data reflected in FIG. 1 represents an average of five replicates and the experiment was conducted twice. […] It is known that there are differences of AR and p53 between these two cell types.

For the next test, the system named is epidermal hyperplasia. Briefly: Mouse two-stage carcinogenesis model (DMBA/TPA), skin hyperplasia. The format is in vivo. The note with it: 4 weeks, Sencar mice. The source says:
To test the efficacy of 2-ME in preventing or reversing neoplastic progression, the present inventors have conducted investigations using the well-established mouse two-stage carcinogenesis model. This model was developed to study the complex multistep process of epidermal carcinogenesis since initiation and promotion are involved in the development of cancer in humans. […] Although treatment of mouse skin with a single large dose of DMBA can induce papillomas in about 10-20 weeks and carcinomas in about 20-60 weeks, repetitive doses are necessary to induce tumors at lower levels. No tumors are formed at a sub-threshold dose of DMBA. However, if TPA is applied to the mice initiated with a sub threshold dose of DMBA, multiple papillomas appear after a short latency period, followed by squamous cell carcinomas after a longer period. Tumors cannot be induced with repetitive treatment of TPA in the absence of initiation. Such phenotypic changes produced in the epidermis by TPA treatment are critical for neoplastic progression. One such characteristic feature of neoplastic progression is hyperplasia.
Female Sencar mice were divided into 7 groups each with 5 animals. […]

Test [2] deals with prostate cancer cell lines (LNCaP, DU145) and brain and/or nervous system cancer cell line (DAOY). Briefly: Cell proliferation and induction of apoptosis, 2-ME versus 16-ES. The test is classed as cell-based. The source says:
Building on these findings, further experiments have helped to elucidate the structural bases for 2-ME's molecular efficacy. A number of experiments have been conducted using 2-ME and 16-epiestriol (hereinafter “16-ES”), an analogue of 2-ME that lacks the methoxy group at the second position. In a multitude of experiments, using prostate cancer cell lines (both androgen-dependent (LNCaP), and androgen-independent (DU145) cells), and a brain and/or nervous system cancer cell line (DAOY), the present inventors have studied the effects of 2-ME and 16-ES on cell proliferation and the induction of apoptosis, in a number of ways. […] Further, it also indicates efficacy of a series of compounds with various moieties at the second position in the treatment of cancer. […] Thus, the present inventors now propose a method of synthesizing a number of analogues of 2-ME that will exceed the efficacy of 2-ME in the prevention of cancer.

The subject of the next test is p53 in DU145 cells. Briefly: p53 EMSA of whole cell extracts. The format is cell-based. The note with it: DU145 extract, 3 μM, 48 h. How it is done: (§4) FIG. 4 depicts an electrophoretic mobility shift assay (EMSA) of whole cell extracts (prepared from LNCaP and DU145 cells that were untreated (C) or treated (T) with 3 μM 2-ME for 48 h) using p53 consensus oligonucleotide as radiolabled probe. The indicated amounts (μg) of the extract was incubated with approximately 0.2 ng of labeled probe and the DNA-protein complexes were resolved by 4% non-denaturing gel electrophoresis. Unbound (F) and bound complexes (B) are indicated. Lane 1 is free probe; lane 2, 4, 6 and 8 are with 2.5 μg protein; lanes 3, 5, 7 and 9 are with 5 μg protein. Lanes 2, 3, 6 and 7 are untreated; lanes 4, 5, 8 and 9 are treated.
As shown in FIG. 4 (Electrophoretic mobility shift assay (EMSA) of extracts prepared from LNCaP and DU145 cells following treatment with 2-ME using p53 oligonucleotide probe) and FIG. 5 (Western blot analysis of extracts following 2-ME treatment with p53 antibody), the proteins from LNCaP and DU145 cells bound to the p53 consensus sequence (FIG. 4, lanes 2 and 3). […] One would expect to see induced expression of p53 following 2-ME treatment, if it is involved in mediating apoptosis.

A further test has as its system DMBA-TPA induced tumors. Nature of the test: Regression of DMBA-TPA induced tumors in mice. The test is classed as in vivo, mouse. The settings on record: 2 mg topically twice a week for four weeks. How it is done: Referring to FIG. 12, after 4 weeks, animals were sacrificed and the dorsal skin was used for histology. […] In addition, topical application of 2 mg of 2-ME during tumor initiation-promotion stage inhibited hyperplasia by about 14%. […] In addition, the present inventors have treated mice that have developed the tumors using DMBA-TPA protocol with 2 mg of 2-ME topically twice a week for four weeks to see if tumors regress. During this four-week study, we have noticed that the number of tumors reduced from 10 to 8 in one animal (one such tumor is indicated by an arrow in the mouse II—see FIG. 13) and no change in the other animal.

The test system of the next test is p53 in LNCaP cells. Nature of the test: p53 EMSA and Western blot of whole cell extracts. The format is cell-based. How it is done: as §4
FIG. 5 depicts a Western blot analysis of whole cell extracts from LNCaP and DU145 cells following treatment with 2-ME for 48 hours using a p53 antibody (FL-393, Santa Cruz). 25 μg of extract was fractionated on 10% denaturing gel and transferred to nitrocellulose membrane. After blocking the membrane, it was incubated for 2 hours with the p53 antibody. This was followed by incubation with horseradish peroxidase-conjugated anti-rabbit IgG antibody (Sigma) in the blocking solution. Bound antibody was detected by Supersignal West Pico Chemiluminescent Substrate, following the manufacturer's directions (Pierce, Rockford, Ill.). […]

The subject of test [3] is DU145 cells. Nature of the test: Cell cycle distribution by flow cytometric analysis (Krishan stain). The test is classed as cell-based. The settings on record: DU145, 3 μM, 16 hours. How it is done: Referring to FIG. 3, since 2-ME inhibited the growth of LNCaP and DU145 cells, the present inventors set out to examine whether 2-ME treatment altered the distribution of cells during cell cycle progression. Logarithmically growing DU145 cells were plated in 60 mm dishes as described above at a density of 10^5 cells per dish. After 24 hours of growth at 37° C. in an incubator with 5% CO2, half the dishes were treated with 3 μM of 2-ME and the other half was left untreated. Cells were observed every 24 hours for morphological changes following treatment with 2-ME. After 16 hours of incubation cells were harvested by trypsinization and the cell pellet was resuspended in 1 ml of Krishan stain and subjected to flow cytometric analysis at the Flow Cytometry facility of the University of Colorado Comprehensive Cancer Center, Denver, Colo. […] This could be due to alteration of expression and/or activities of cell cycle regulatory proteins in the G2/M phase.

In the next test the test system is LNCaP cells. Briefly: Cell growth, CELLTITER96 AQUEOUS ONE tetrazolium assay. The format is cell-based. The note with it: for inhibition of growth: 72 hours. The procedure:
as §1, §2, §3
Cells were treated with either eugenol (0.25, 0.5, 0.75 or 1 mM) or 2-ME (0.5, 1, 2 or 3 mM) or both (0.25, 0.5, 0.75 or 1 mM of eugenol along with 0.5 mM of 2-ME). Cell growth was measured following 72 hours of treatment as described above.

With `COc1cc2c(cc1O)CC[C@@H]1[C@@H]2CC[C@]2(C)[C@@H](O)CC[C@@H]12` [2-ME, 2-methoxyoestradiol], in the test on endothelial cell, the endothelial cell proliferation entry was “inhibit endothelial cell proliferation”. In the test on DU145 cells [1] (DU145, 2-ME 0.5 to 5 μM, monitored every 24 hours, less sensitive than LNCaP), the “inhibition of cell proliferation” value is “dose-dependent inhibition of cell proliferation”. The same molecule gave a reduction of hyperplasia with epidermal hyperplasia (topical 2 mg 5 min before DMBA application) of 26%. The inhibition of hyperplasia result in the test with epidermal hyperplasia (topical 2 mg during tumor initiation-promotion stage) is “about 14%”. Moreover, in test [2], the “inhibition of cancerous cell growth” value is given as “significantly inhibits cancerous cell growth; also recorded: inhibits the growth” and the pro-apoptotic effects result was “has pro-apoptotic effects”. Besides, the “loss of DNA-binding activity to p53 consensus sequence (EMSA)” value in the test on p53 in DU145 cells is on record as “not as dramatic as that of LNCaP extracts”. In the test with DMBA-TPA induced tumors, the “size of the tumors” value is listed as “reduction in the size of the tumors”. Also, the “number of tumors after treatment” value in the test on DMBA-TPA induced tumors (one animal, reduced from 10) amounted to 8. The “number of tumors, other animal” value in the test with DMBA-TPA induced tumors (other animal) is on record as “no change”. The “DNA-binding activity to p53 consensus sequence (EMSA)” value in the test with p53 in LNCaP cells (3 μM, 48 h) is recorded as “lost their binding activity”. Further, in the test on p53 in LNCaP cells (48 hours), the “p53 expression (Western blot)” value is given as “decrease in its expression”. The “population of cells in S phase” value in the test on DU145 cells [3] is listed as “no significant change”. In addition, in the test on DU145 cells [3] (untreated 23%), the “G2/M population following treatment” value is listed as 46%. The “G1 population following treatment” value in the test on DU145 cells [3] (untreated 71%) was determined as 46%. The inhibition of growth entry in the test with LNCaP cells (0.5 mM of 2-ME) is on record as “about 20%”. Besides, the “inhibition of cell proliferation” value in the test on LNCaP cells (2-ME 0.5 to 5 μM, monitored every 24 hours) was “dose-dependent inhibition of cell proliferation”.

On to `C[C@]12CC[C@@H]3c4ccc(O)cc4CC[C@H]3[C@@H]1C[C@H](O)[C@@H]2O` [16-ES, 16-epiestriol], for which the “inhibition of cancerous cell growth” value in test [2] is given as “does not”.

Take `C=CCc1ccc(O)c(OC)c1` [eugenol]: the IC50 with DU145 cells [1] (Homo sapiens, DU-145, DU145 cells, read-out: concentration necessary for 50% inhibition of growth) is over 2000 µM; in the test on LNCaP cells (Homo sapiens, read-out: concentration necessary for 50% inhibition of growth) it was about 750 µM. The inhibition of growth result in the test with LNCaP cells (0.25 mM of eugenol) is listed as “about 30%”.
